Measured values from US20260315492A1, “5,6-FUSED BICYCLIC AMIDES AND COMPOSITIONS FOR USE AS 15-PROSTAGLANDIN DEHYDROGENASE MODULATORS” (AMGEN INC., priority 2023, published 2026).

Each compound was assayed against T1, human recombinant 15-PGDH (Homo sapiens, UniProt P15428) (assay: Inhibition of recombinant 15-PGDH enzymatic activity (NADH quantification after addition of PGE2 and NAD+)). Conditions: recombinant 15-PGDH; 15 min pre-incubation, 60-minute reaction, room temperature, pH 7.5; PGE2 and NAD+; read-out: PGDH-Lumi IC50.
T1 sequence (P15428 1-266): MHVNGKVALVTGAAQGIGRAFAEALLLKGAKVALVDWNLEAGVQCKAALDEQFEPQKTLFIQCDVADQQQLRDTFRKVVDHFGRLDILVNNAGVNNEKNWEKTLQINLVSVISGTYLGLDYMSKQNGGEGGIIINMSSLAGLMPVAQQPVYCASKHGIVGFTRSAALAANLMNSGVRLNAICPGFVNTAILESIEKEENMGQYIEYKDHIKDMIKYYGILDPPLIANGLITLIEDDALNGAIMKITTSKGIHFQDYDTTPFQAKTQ
Format: biochemical
Description: The compound dose-response of its inhibition of 15-PGDH activity was determined in human recombinant 15-PGDH enzymatical assays. These assays measured 15-PGDH enzymatic activity by quantifying the amount of NADH produced during a 60-minute reaction initiated by the addition of PGE2 and NAD+. Under the conditions of these experiments, the increase of NADH signal upon oxidation of PGE2 and reduction of NAD+ was linearly proportional to 15-PGDH enzymatic activity. The recombinant human, mouse, rat and dog 15-PGDH enzymatic assays were performed in a 25 μL volume of reaction buffer containing 50 mM Tris, pH 7.5, 0.01% Tween-20 and 100 μM DTT in a 384-well microtiter plate. In concentration-response experiments with tested compounds, 22 concentrations from 2-fold serial dilutions in DMSO were pre-incubated with 15-PGDH for 15 minutes at room temperature. Then, PGE2 and ß-NAD+ were added to initiate the 15-PGDH reaction. After 60 minutes at room temperature, the reaction was quenched and NADH signal was measured using a microtiter plate reader.
The following data (Table 11-1) provides the IC50 of each compound for inhibiting enzymatic activity of recombinant 15-PGDH in the assay described above.

| Structure (SMILES) | IC50 |
| --- | --- |
| Cn1cc2cc(-c3ccc4cc(C(=O)N5CCOC(C)(C)C5)sc4n3)cnc2n1 [Compound B40, (2,2-dimethyl-4-morpholinyl)(6-(2-methyl-2H-pyrazolo[3,4-b]pyridin-5-yl)thieno[2,3-b]pyridin-2-yl)methanone] | 1.97 nM |
| C[C@H]1COCCN1C(=O)c1cc2ccc(-c3cnc4ncn(C)c4c3)nc2s1 [Compound B63S, (6-(1-methyl-1H-imidazo[4,5-b]pyridin-6-yl)thieno[2,3-b]pyridin-2-yl)((3S)-3-methyl-4-morpholinyl)methanone] | 5.68 nM |
| Cn1cc2cc(-c3cc(C4CC4)c4cc(C(=O)N5CCCC(F)(F)C5)sc4n3)cnc2n1 [Compound B11, (4-cyclopropyl-6-(2-methyl-2H-pyrazolo[3,4-b]pyridin-5-yl)thieno[2,3-b]pyridin-2-yl)(3,3-difluoro-1-piperidinyl)methanone] | 0.317 nM |
| C[C@@H]1COCCN1C(=O)c1cc2ccc(-c3cnc4nn(C)cc4c3)nc2s1 [Compound B9R, ((3R)-3-methyl-4-morpholinyl)(6-(2-methyl-2H-pyrazolo[3,4-b]pyridin-5-yl)thieno[2,3-b]pyridin-2-yl)methanone] | 6.39 nM |
| C[C@H]1COCCN1C(=O)c1cc2ccc(-c3cnc4nn(C)nc4c3)nc2s1 [Compound B43S, ((3S)-3-methyl-4-morpholinyl)(6-(2-methyl-2H-[1,2,3]triazolo[4,5-b]pyridin-6-yl)thieno[2,3-b]pyridin-2-yl)methanone] | 23.4 nM |
| C[C@@H]1COCCN1C(=O)c1sc2nc(-c3cnc4nn(C)cc4c3)cc(C3CCC3)c2c1N [Compound B6R, (3-amino-4-cyclobutyl-6-(2-methyl-2H-pyrazolo[3,4-b]pyridin-5-yl)thieno[2,3-b]pyridin-2-yl)((3R)-3-methyl-4-morpholinyl)methanone] | 0.816 nM |
| Cn1cc2cc(-c3ccc4sc(C(=O)N5CCCC(F)(F)C5)c(N)c4n3)cnc2n1 [Compound C47, (3-amino-5-(2-methyl-2H-pyrazolo[3,4-b]pyridin-5-yl)thieno[3,2-b]pyridin-2-yl)(3,3-difluoro-1-piperidinyl)methanone] | 1.63 nM |
| Cc1c(C(=O)N2CCOCC2)sc2cc(-c3ccc4nn(C)cc4c3)ccc12 [Compound A11, (3-methyl-6-(2-methyl-2H-indazol-5-yl)-1-benzothiophen-2-yl)(4-morpholinyl)methanone] | 851 nM |
| Cn1cc2cc(-c3ccc4cc(C(=O)N5CCC(C(F)(F)F)CC5)sc4n3)cnc2n1 [Compound B21, (6-(2-methyl-2H-pyrazolo[3,4-b]pyridin-5-yl)thieno[2,3-b]pyridin-2-yl)(4-(trifluoromethyl)-1-piperidinyl)methanone] | 1.45 nM |
| Cn1cc2cc(-c3ccc4cc(C(=O)N5CCOC6(CC6)C5)sc4n3)cnc2n1 [Compound B47, (6-(2-methyl-2H-pyrazolo[3,4-b]pyridin-5-yl)thieno[2,3-b]pyridin-2-yl)(4-oxa-7-azaspiro[2.5]octan-7-yl)methanone] | 0.712 nM |
| C[C@H]1COCCN1C(=O)c1cc2ccc(-c3cc(=O)n(C)cn3)nc2s1 [Compound B34S, 3-methyl-6-(2-(((3S)-3-methyl-4-morpholinyl)carbonyl)thieno[2,3-b]pyridin-6-yl)-4(3H)-pyrimidinone] | 200 nM |
| O=C(c1cc2ccc(-c3nccs3)nc2s1)N1CCOCC1 [Compound B38, 4-morpholinyl(6-(1,3-thiazol-2-yl)thieno[2,3-b]pyridin-2-yl)methanone] | 1330 nM |
| C[C@H]1COCCN1C(=O)c1cc2c(C3CC3)cc(-c3cnc4nn(C)cc4c3)nc2s1 [Compound B17S, (4-cyclopropyl-6-(2-methyl-2H-pyrazolo[3,4-b]pyridin-5-yl)thieno[2,3-b]pyridin-2-yl)((3S)-3-methyl-4-morpholinyl)methanone] | 1.17 nM |
| O=C(c1cc2ccc(-c3cnc4nccnc4c3)nc2s1)N1CCOCC1 [Compound B56, 4-morpholinyl(6-(pyrido[2,3-b]pyrazin-7-yl)thieno[2,3-b]pyridin-2-yl)methanone] | 5.91 nM |
| Cn1cc2cc(-c3ccc4cc(C(=O)N5CCOCC56CC6)sc4n3)cnc2n1 [Compound B45, (6-(2-methyl-2H-pyrazolo[3,4-b]pyridin-5-yl)thieno[2,3-b]pyridin-2-yl)(7-oxa-4-azaspiro[2.5]octan-4-yl)methanone] | 46.1 nM |
| Cn1ccc2cc(-c3cnc4sc(C(=O)N5CCCCC5)cc4c3)ccc2c1=O [Compound B28, 2-methyl-6-(2-(1-piperidinylcarbonyl)thieno[2,3-b]pyridin-5-yl)-1(2H)-isoquinolinone] | 11.9 nM |

| Structure (SMILES) | IC50 |
| --- | --- |
| C[C@H]1COCCN1C(=O)c1cc2ccc(-c3ccc4ncccc4c3)nc2s1 [Compound B55S, ((3S)-3-methyl-4-morpholinyl)(6-(6-quinolinyl)thieno[2,3-b]pyridin-2-yl)methanone] | 144 nM |
| C[C@H]1COCCN1C(=O)c1cc2ccc(-c3cnc4nccnc4c3)nc2s1 [Compound B57S, ((3S)-3-methyl-4-morpholinyl)(6-(pyrido[2,3-b]pyrazin-7-yl)thieno[2,3-b]pyridin-2-yl)methanone] | 10.3 nM |
| CO[C@H]1CCCN(C(=O)c2sc3cc(-c4cnc5nn(C)cc5c4)ccc3c2C)C1 [Compound A7S, ((3S)-3-methoxy-1-piperidinyl)(3-methyl-6-(2-methyl-2H-pyrazolo[3,4-b]pyridin-5-yl)-1-benzothiophen-2-yl)methanone] | 66.4 nM |
| C[C@H]1COCCN1C(=O)c1cc2ccc(-c3ccc(=O)n(C)c3)nc2s1 [Compound B32S, 1-methyl-5-(2-(((3S)-3-methyl-4-morpholinyl)carbonyl)thieno[2,3-b]pyridin-6-yl)-2(1H)-pyridinone] | 623 nM |
| C[C@@H]1COCCN1C(=O)c1cc2c(C3CC3)cc(-c3cnc4nn(C)cc4c3)nc2s1 (single isomer, unassigned) [Compound B17R] | 3.11 nM |
| C[C@@H]1COCCN1C(=O)c1cc2ccc(-c3cnc4nn(C)nc4c3)nc2s1 [Compound B43R, ((3R)-3-methyl-4-morpholinyl)(6-(2-methyl-2H-[1,2,3]triazolo[4,5-b]pyridin-6-yl)thieno[2,3-b]pyridin-2-yl)methanone] | 40.3 nM |
| C[C@@H]1COCCN1C(=O)c1nc2ccc(-c3cnc4nn(C)cc4c3)nc2s1 [Compound C52R, ((3R)-3-methyl-4-morpholinyl)(5-(2-methyl-2H-pyrazolo[3,4-b]pyridin-5-yl)[1,3]thiazolo[5,4-b]pyridin-2-yl)methanone] | 17 nM |
| CC(C)(C)OC(=O)N1CCN(c2ncc(-c3cc(C4CC4)c4cc(C(=O)N5CCCCC5)sc4n3)cn2)CC1 [Compound B18, 2-methyl-2-propanyl 4-(5-(4-cyclopropyl-2-(1-piperidinylcarbonyl)thieno[2,3-b]pyridin-6-yl)-2-pyrimidinyl)-1-piperazinecarboxylate] | 1.58 nM |
| Cn1cc2cc(-c3cc(C4CC4)c4cc(C(=O)N5CCOCC5)sc4n3)cnc2n1 [Compound B10, (4-cyclopropyl-6-(2-methyl-2H-pyrazolo[3,4-b]pyridin-5-yl)thieno[2,3-b]pyridin-2-yl)(4-morpholinyl)methanone] | 0.917 nM |
| CO[C@@H]1CCN(C(=O)c2sc3cc(-c4cnc5nn(C)cc5c4)ccc3c2C)C1 [Compound A4R, ((3R)-3-methoxy-1-pyrrolidinyl)(3-methyl-6-(2-methyl-2H-pyrazolo[3,4-b]pyridin-5-yl)-1-benzothiophen-2-yl)methanone] | 225 nM |
| Cn1cc2cc(-c3ccc4sc(C(=O)N5CCCCC5)c(N)c4n3)cnc2n1 [Compound C45, (3-amino-5-(2-methyl-2H-pyrazolo[3,4-b]pyridin-5-yl)thieno[3,2-b]pyridin-2-yl)(1-piperidinyl)methanone] | 0.679 nM |
| Cn1cc2cc(-c3ccc4cc(C(=O)N5CC6CCC(C5)O6)sc4n3)cnc2n1 [Compound B37, (6-(2-methyl-2H-pyrazolo[3,4-b]pyridin-5-yl)thieno[2,3-b]pyridin-2-yl)(8-oxa-3-azabicyclo[3.2.1]octan-3-yl)methanone] | 2.38 nM |
| Cn1nccc1-c1nc(-c2cnc(=O)[nH]c2)nc2sc(C(=O)N3CCC(F)(F)CC3)cc12 [Compound C38, 5-(6-((4,4-difluoro-1-piperidinyl)carbonyl)-4-(1-methyl-1H-pyrazol-5-yl)thieno[2,3-d]pyrimidin-2-yl)-2(1H)-pyrimidinone] | 16 nM |
| Cn1cc2cc(-c3cnc4sc(C(=O)N5CCCCC5)cc4c3)cnc2n1 [Compound B16, (5-(2-methyl-2H-pyrazolo[3,4-b]pyridin-5-yl)thieno[2,3-b]pyridin-2-yl)(1-piperidinyl)methanone] | 9.51 nM |
| Cn1cc2cc(-c3ccc4cc(C(=O)N5CCC(F)(F)CC5)sc4n3)cnc2n1 [Compound B25, (4,4-difluoro-1-piperidinyl)(6-(2-methyl-2H-pyrazolo[3,4-b]pyridin-5-yl)thieno[2,3-b]pyridin-2-yl)methanone] | 0.352 nM |
